Measured values published in patent publication US5958770A, “Glycoalkaloids” (priority 1990, dated 1999).
Like-named read-outs stand apart in the source and are kept apart here.

Legend:
[1] = tested on: PHA stimulated lymphocytes; test: Inhibition of tritiated thymidine uptake, PHA stimulated lymphocytes; details: PHA stimulated lymphocytes
Description: (§1) This was cultured for 48 hours and pulsed with tritiated thymidine for a further 24 hours. In the inhibition studies, the cell concentration was 8×10^5 /ml.
(§2) All cells were harvested by vacuum filtration by washing in 250 μl of each of phosphate buffered saline, 5% trichloroacetic acid, 1.0M NaCl and 95% ethanol and subjected to β-scintillatian counting. Similarly, peripheral human blood lymphocytes were isolated and cultured 2×10^5 lymphocytes in CO2 1640TCM 10% HIFCS. Lymphocytes were stimulated with 20 μg/ml PHA, Con A or PWM, and cultured for 48 hrs followed by a 24 hr pulse. […] Cell concentrations were 8×10^4 /well total volume 250 μl. The dpm of the experimental replicates were expressed as a percentage of the mean value of the controls, and the mean value of the experimental replicates calculated.

ovarian cancer cells [2] = test: Solamargine cytotoxicity in presence and absence of carbohydrates, ovarian cancer cells; assay type: cell-based, human; details: Homo sapiens, OvCa, solamargine 1.54 μM/L, read-out: Percentage Survival
Description: A mixture of solasodine glycosides (BEC), of which the active compound is solamargine and from which the aglycone solasodine is derived was prepared for use in cytotoxicity assays as determined by the uptake of tritiated thymidine. Inhibition studies were carried out with lactose, lactosyl-albumin, galactose or rhamnose (Sigma Chemical Co., USA). All experimental replicates were related to their own controls. Total volume of replicates was 250 μl (carbohydrates added in 50 μl tissue culture media+10% fetal calf serum), and the cell concentrations were 8×10^4 /ml.

in vitro = details: human, con a stimulated lymphocytes
Description: as §1, §2

ovarian cancer cells [3] = test: Morphological examination of ovarian cancer cells (Papanicolaou); assay type: cell-based, human; details: 17 hours; FIG. 4B
Description: Appropriate DMSO cytotoxicity studies were also conducted.
A human ovarian cancer cell line (C180-135) was grown as mono layers and trypsinized to form a cell suspension. The cells were adjusted to a concentration of 1×10^5 /ml (viability ≥95%) and 200 μl placed in each of the eight chambers of microscope chamber slides (Lab Tek, Miles Scientific). After 21 hours preincubation at 37.5° C., 50 μl of supplemented tissue culture media were added to the control chambers. To the other chambers were added 50 μl of solasodine glycosides (BEC) to give final concentrations of 3, 4.8, 6.7, 7.7, 9.6, 11.1 and 15.3 μM/L. Similarly, to a separate chamber slide was added the aglycone solasodine (19.4-96.8 μM/L). The slides were incubated at 37.5° C. for a further 3 hours, and the cells fixed in 95% V/V alcohol and stained by the Papanicolaou method. Two other chamber slides were prepared in a similar manner, but the solasodine glycosides and the aglycone were added at a final concentration of 0.77, 1.5, 2.3, 3.1 and 3.8 μM/L after 7 hours preincubation, and they incubated for a further 17 hours.

What does the source list for `C[C@@H]1CC[C@@]2(NC1)O[C@H]1C[C@H]3[C@@H]4CC=C5C[C@@H](O[C@@H]6O[C@H](CO)[C@@H](O[C@@H]7O[C@@H](C)[C@H](O)[C@@H](O)[C@H]7O)[C@H](O)[C@H]6O[C@@H]6O[C@@H](C)[C@H](O)[C@@H](O)[C@H]6O)CC[C@]5(C)[C@H]4CC[C@]3(C)[C@H]1[C@@H]2C` [Solamargine, solamargine]?
cytotoxicity (words) [1]: absence of cytotoxicity; viability at 1.54 µM (ovarian cancer cells [2]; 1.1 μM/L galactose, ** p = 0.001): 79%; viability at 1.54 µM (ovarian cancer cells [2]; 1.1 μM/L lactose, * p < 0.02 > 0.01): 75%; viability at 1.54 µM (ovarian cancer cells [2]; 1.1 μM/L rhamnose): 67 ± 7.5%; viability at 1.54 µM (ovarian cancer cells [2]; no carbohydrate): 62 ± 7%; viability at 11.5 µM (in vitro): 79 ± 4%; morphological effect on ovarian cancer cells (ovarian cancer cells [3]): absence of cancer cells upon cytological examination
